Results reported in patent EP3958860B1, “COMPOUNDS EXHIBITING ANTI-TUBERCULOSIS ACTIVITY” (priority 2019, dated 2021).
In brackets after ≈: the same amount, converted by molar mass. Like-named read-outs stand apart in the source and are kept apart here.

Experiments:
[1] = system: Mycobacterium tuberculosis H37Rv; test: MIC determination by MABA (Microplate Alamar Blue Assay); assay type: cell-based; conditions: for MIC: Mycobacterium tuberculosis, H37RV
Experimental: Following this, to determine the actual minimum inhibitory concentration in the second phase, both of the compounds were retested to the lowest concentration of Mycobacterium tuberculosis H37Rv with the technique of MABA (Microplate Alamar Blue Assay) and MIC value for the 1st compound was determined <0.03 µg/ml while this value was determined <0.05 µg/ml for the second compound. The result of Rifampicin subjected to the assay under the same conditions was determined as 0.25 µg/ml.

Mycobacterium avium = test: MIC on Mycobacterium avium with BACTEC; assay type: cell-based; conditions: for MIC: Mycobacterium avium, BACTEC
[2] = assay type: physicochemical
Experimental: To ensure that Compound 2 is dissolved in water, in the assays carried out with solubility enhancing cyclodextrin molecules, different cyclodextrins [hydroxypropyl beta-cyclodextrin (HP-β-CD), sulfobutyl ether beta-cyclodextrin (SBE-β-CD)], different methods [kneading, evaporation, lyophilization], different solvents (dimethyl sulfoxide, methanol, ethanol) were studied at the molar ratio of 1: 1 compound: cyclodextrin.

[3] = assay type: physicochemical; remark: listed apart in the source
Experimental: In the assays carried out with the solubility enhancing Polysorbate 80 (Tween 80) in order to ensure water solubility of Compound 2, firstly solubility of the compound was determined in an aqueous solution prepared with a mass ratio of 1:6 (compound: Tween 80) and then the same mass ratio was studied with different solvents (ethanol, methanol) and different drying methods (evaporation, evaporation+lyophilization). In light of the results of solubility obtained and presented below Table 2, it has determined that the solution of the compound that was prepared with the Tween 80 in methanol medium had the highest solubility rate after evaporation.
Details of the method where high solubility was determined with Polysorbate 80 (Tween 80) are presented below: After the substances at the mass ratio of 1:6 (compound: Tween 80) were dissolved in 7 ml methanol, they were evaporated in a rotating evaporator at 175 RPM, at a temperature of 40°C and a vacuum of […]. The thin film obtained was firstly blended with vortex adding 3 ml water, and then was left to rest for 15 minutes in an ultrasonic bath. The mixture obtained was filtered out with a plastic filter having a pore diameter of 0.2 µm and afterward solubility ratio of the mixture was determined with HPLC.

[4] = system: Mycobacterium tuberculosis H37Rv (ATCC27294); assay type: cell-based
[5] = In vivo animal toxicity tests (maximum tolerable dose)
[6] = first value of the cell (outside parentheses), MABA, read-out: MIC H37Rv
[7] = value printed in parentheses after the bound <12.5, read-out: MIC H37Rv (µg/ml), value in parentheses
[8] = first value of the cell (outside parentheses), MABA
[9] = read-out: MIC H37Rv (µg/ml), value in parentheses

Row | Structure (SMILES) | MIC [1, 6] | MIC [1, 7] | MIC (Mycobacterium avium) | other results
1 | CC(=NNc1nc(-c2ccc(Cl)cc2)cs1)c1ccc2c(c1)CCC2 [Compound 3, 4-(4-Chlorophenyl)-2-[2-(1-(2,3-dihydro-1H-inden-5yl)ethylidene)hydrazinyl] thiazole] | < 12.5 µg/mL | 0.39 µg/mL (≈ 1.06 µM) | 0.78 mg/L (≈ 2.12 µM) | –
2 | COc1ccc(-c2csc(NN=C(C)c3ccc4c(c3)CCC4)n2)c(O)c1 [Compound 8, 2-[2-(2-(1-(2,3-Dihydro-1H-inden-5-yl)ethylidene)hydrazinyl)thiazol-4-yl]-5-methoxyphenol] | < 12.5 µg/mL | – | – | –
3 | CC(=NNc1nc(-c2ccccc2O)cs1)c1ccc2c(c1)CCC2 [Compound 4, 2-[2-(2-(1-(2,3-Dihydro-1H-inden-5-yl)ethylidene)hydrazinyl)thiazol-4-yl]phenol] | < 12.5 µg/mL | 0.2 µg/mL (≈ 0.572 µM) | 0.78 mg/L (≈ 2.23 µM) | –
4 | CC(=NNc1nc(-c2ccc(C)cc2O)cs1)c1ccc2c(c1)CCC2 [Compound 9, 2-[2-(2-(1-(2,3-Dihydro-1H-inden-5-yl)ethylidene)hydrazinyl)thiazol-4-yl]-5-methylphenol] | < 12.5 µg/mL | 0.05 µg/mL (≈ 0.138 µM) | 0.1 mg/L (≈ 0.275 µM) | –
5 | COc1ccc(O)c(-c2csc(NN=C(C)c3ccc4c(c3)CCC4)n2)c1 [Compound 2, 2-[2-(2-(1-(2,3-dihydro-1H-inden-5-yl)ethylidene)hydrazinyl)thiazole-4-yl]-4-methoxy phenol] | < 0.05 µg/mL | – | 0.39 mg/L (≈ 1.03 µM) | MIC H37Rv [1, 8]: <0.05 mg/L; activity on Mycobacterium avium (Mycobacterium avium): exhibited activity; increase in solubility [2]: any significant increase in solubility was not observed; dissolved in water at the ratio of ([2]; HP-β-CD, molar ratio 1:1, evaporation method within ethanol): 0.59 µg/mL; Solubility ratio in the aqueous solution [3]: Solubility ratio in the aqueous solution prepared with the mass ratio of 1:6 (compound: Tween 80) 42,44 µg/ml; The ratio of water solubility [3]: 58,80 µg/ml; The ratio of water solubility ([3]; 15 min): 70,05 µg/ml
6 | CO[C@H]1/C=C/O[C@@]2(C)Oc3c(C)c(O)c4c(O)c(c(/C=N/N5CCN(C)CC5)c(O)c4c3C2=O)NC(=O)/C(C)=C\C=C\[C@H](C)[C@H](O)[C@@H](C)[C@@H](O)[C@@H](C)[C@H](OC(C)=O)[C@@H]1C [Rifampicin, reference compound] | 0.25 µg/mL (≈ 0.304 µM) | – | – | –
7 | CC(=NNc1nc(-c2ccccc2)cs1)c1ccc2c(c1)CCC2 [Compound 11, 2-[2-(1-(2,3-Dihydro-1H-inden-5-yl)ethylidene)hydrazinyl]-4-phenylthiazole] | – | – | 12.5 mg/L (≈ 37.5 µM) | MIC ([1]; read-out: MIC H37Rv (µg/ml)): < 12.5 µg/mL; MIC [1, 9]: 3.13 µg/mL (≈ 9.39 µM)
8 | C/C(=N\Nc1nc(-c2ccc(C)cc2)cs1)c1ccc2c(c1)CCC2 [Compound 7] | – | – | 0.2 mg/L (≈ 0.576 µM) | Primary screening % inhibition [4]: 94%; MIC ([1]; read-out: MIC H37Rv (µg/ml)): < 12.5 µg/mL; MIC [1, 9]: 0.2 µg/mL (≈ 0.576 µM)
9 | CC(=NNc1nc(-c2ccc(Br)cc2)cs1)c1ccc2c(c1)CCC2 [Compound 6, 4-(4-Bromophenyl)-2-[2-(1-(2,3-dihydro-1H-inden-5-yl)ethylidene)hydrazinyl] thiazole] | < 12.5 µg/mL | 0.39 µg/mL (≈ 0.946 µM) | 1.56 mg/L (≈ 3.78 µM) | –
10 | CC(=NNC(N)=S)c1ccc2c(c1)CCC2 [Compound 1, 2-[1-(2,3-dihydro-1H-inden-5-yl)ethylidene]hydrazinecarbothioamide] | < 0.03 µg/mL | – | – | MIC H37Rv [1, 8]: <0.03 mg/L; maximum tolerable dose [5]: 1000 mg/kg
11 | C/C(=N\Nc1nc(-c2ccc([N+](=O)[O-])cc2)cs1)c1ccc2c(c1)CCC2 [Compound 10] | – | – | 3.13 mg/L (≈ 8.27 µM) | Primary screening % inhibition [4]: 93%; MIC ([1]; read-out: MIC H37Rv (µg/ml)): < 12.5 µg/mL; MIC [1, 9]: 1.56 µg/mL (≈ 4.12 µM)
12 | CC(=NNc1nc(-c2cc(Cl)ccc2O)cs1)c1ccc2c(c1)CCC2 [Compound 5, 4-Chloro-2-[2-(2-(1-(2,3-dihydro-1H-inden-5-yl)ethylidene)hydrazinyl)thiazol-4-yl]phenol] | < 12.5 µg/mL | – | – | –
